Measurements: PubChem BioAssay (NCI)
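Each compound was tested at five concentrations against cells in 96-well plates for 48 hours. GI50: concentration for 50% inhibition of growth. Definition used: TGI = concentration required for complete inhibition of growth.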

Assays:
Experiment in all cases: NCI-60 cell line screen, 48 h
MCF7 breast = system: MCF7 breast
M14 melanoma = system: M14 melanoma
HL-60(TB) leukemia = system: HL-60(TB) leukemia
BT-549 breast = system: BT-549 breast
SNB-75 CNS = system: SNB-75 CNS
T-47D breast = system: T-47D breast
DU-145 prostate = system: DU-145 prostate

Structure (SMILES)	GI50 (MCF7 breast) [µM]	TGI (MCF7 breast) [µM]	GI50 (M14 melanoma) [µM]	TGI (M14 melanoma) [µM]	GI50 (HL-60(TB) leukemia) [µM]	TGI (HL-60(TB) leukemia) [µM]	GI50 (BT-549 breast) [µM]	TGI (BT-549 breast) [µM]	GI50 (SNB-75 CNS) [µM]	TGI (SNB-75 CNS) [µM]	GI50 (T-47D breast) [µM]	TGI (T-47D breast) [µM]	GI50 (DU-145 prostate) [µM]	TGI (DU-145 prostate) [µM]
CC(C)(C)CC(C)(C)NCc1cc(C(C)(C)C)cc(CNC(C)(C)CC(C)(C)C)c1O	3.12	11.3	1.95	4.16	2.51	8.04	4.15	14.9	3.99	15.1	2.09	5.14	6.07	18.5
Cc1cn2c(/C=N/N=C(N)N)c(-c3cccs3)nc2s1	2.79	13.7	1.63	3.01	–	–	8.07	22.8	–	–	5.51	25.9	–	–
CCOC(=O)CC1C(COC(=O)NC)OC(n2cnc3c(NC(=O)Nc4ccccc4)ncnc32)C1O[Si](C)(C)C(C)(C)C (stereo not given)	3.37	17.1	6.37	95.7	1.39	3.78	2.07	6.71	10.3	50.2	4.95	84.7	5.21	28.2
CCCC(CCC)C(=O)OCC1(CO)C/C(=C\c2ccc(F)cc2)C(=O)O1 (stereo not given)	15.5	31.4	8.45	24.8	0.907	8.36	7.25	22.6	7.99	22.8	13.2	30.1	12.7	25.7
COc1cc(-c2nc(-c3nc4ccccc4[nH]3)cc3c2[nH]c2ccccc23)cc(OC)c1OC	4.11	> 100	4.18	> 100	4.37	> 100	5.48	> 100	–	–	2.92	> 100	6.27	> 100
CC(C)(C)[Si](C)(C)OC1[C@@H](O[Si](C)(C)C(C)(C)C)[C@@H](CNC(=O)NC(=O)CCl)O[C@H]1n1cnc2c(NC(=O)Nc3ccccc3)ncnc21 (stereo not given in full)	0.76	1.62	0.978	1.98	0.166	0.488	0.962	1.79	0.536	1.28	1.01	2.17	1.73	5.32
COc1ccc(OC)c2c1[nH]c(=O)c1c3ncccc3cn21	2.17	27.3	4.49	> 100	3.13	> 100	> 100	> 100	4.39	62	3.54	> 100	3.45	14.7
Cc1cc(N2CCSCC2)nc(NC2CCCC(Nc3ccnc4cc(Cl)ccc34)C2)n1 (stereo not given)	–	–	1.85	3.72	–	–	1.71	3.79	1.28	2.94	2.41	5.9	3.13	12.5
N#CCN/C=C\C(=O)c1ccc(Cl)cc1	32.5	> 100	20.3	> 100	14.2	> 100	–	–	–	–	33.9	> 100	41.4	> 100
COc1ccc2nc3cc([N+](=O)[O-])ccc3c(NCCCN(C)C)c2c1	0.0304	0.204	0.176	0.412	0.0953	–	2.65	5.26	0.31	1.53	–	–	0.175	11.9
O=C(O)C(Cl)(c1ccccc1)c1ccccc1	–	> 100	–	> 100	–	> 100	–	> 100	–	> 100	–	> 100	–	> 100
COc1cc(CNc2ccccc2C(=O)N2CCN(C(=O)c3cc(-c4cc(OC)c(OC)c(OC)c4)n4nc(-c5ccccc5)cc4n3)CC2)cc(OC)c1OC	3.01	> 100	4.05	> 100	1.98	> 100	3.27	49.1	1.98	> 100	–	–	3.96	> 100
CNC(=O)Cc1nc(-c2cccc(NS(=O)(=O)c3c(F)cccc3F)c2F)c(-c2ccnc(Nc3ccccc3)n2)s1	19.1	> 50	0.0108	6.58	3.96	> 50	> 35.8	> 50	0.6	49.8	6.23	> 41.1	12.6	> 50
COc1cc(Nc2nc3ccccc3cc2C(=O)Nc2ccc(F)c(F)c2)cc(OC)c1OC	2.16	8.4	2.74	–	2.43	7.14	2.48	6.54	2.27	9.35	1.84	6.39	4.25	> 100
N#CC1=C(N)NC(N2CCOCC2)=NC12Nc1ccccc1N2	–	–	> 100	> 100	44.2	> 100	32.6	> 100	> 100	> 100	59.1	> 100	63.6	> 100
COc1ccc(/C=N\Nc2ccc([N+](=O)[O-])cn2)cc1OC	–	–	> 100	> 100	–	–	> 100	> 100	2.9	16.4	–	–	> 100	> 100
CCCCCCCCCCCCCCCCCC(=O)OCC(COC(=O)CCCN)OC(=O)CCCN (stereo not given)	–	47.1	–	31.4	–	77	–	–	–	> 100	–	40	–	33.7
Cc1cc(C)c(Cn2cnc3c(Cl)ncnc32)c(C)c1CCl	30.5	> 100	99.4	> 100	27.2	59.9	> 100	> 100	–	–	24.9	95.3	–	–
CN/N=C(\C)C(CN(C)C)C(c1ccccc1)c1c(O)c2ccccc2oc1=O (stereo not given)	–	> 100	–	> 100	–	> 100	–	> 100	–	> 100	–	> 100	–	> 100
SCCSCCCSCCS	–	> 100	–	> 100	–	45.6	–	> 100	–	> 100	–	> 100	–	> 100
O=C1/C(=C\c2ccccn2)c2ccccc2N1c1c(Cl)cccc1Cl	2.41	14.3	1.78	3.72	3.75	> 29.6	2.21	4.88	2.01	15.4	2.6	9.66	1.94	3.95
NC(=O)c1cccc(Nc2nccc(Nc3cccc4[nH]ncc34)n2)c1	9.49	> 25	9.59	> 25	10.5	> 25	9.4	> 25	4.58	15.6	2.99	> 17.9	9.7	> 25
CCN(CC)CCCC(C)N=C(C1=C(C(=NC(C)CCCN(CC)CC)c2cccc(OC)c2)C(=O)NC1=O)c1cccc(OC)c1 (stereo not given)	1.25	3.51	0.89	1.68	3.66	11.7	2.24	8.44	1.65	6.81	2.02	10.4	1.54	5.03
CCC(CNc1cc(OC)cc2cccnc12)NC1CCCCC1 (stereo not given)	20.7	> 100	17.1	33.5	15.2	41.7	–	–	21.3	> 100	17.2	64.3	35.5	> 100
C=C1CCC2C(C)(COC(=O)CC)C(OC(=O)CC)CCC2(C)C1C/C=C1/C(=O)OCC1OC(=O)CC (stereo not given)	–	–	1.94	4.66	1.82	5.85	–	–	1.22	3.68	–	–	1.82	3.25
O=Cc1cccc2c1Oc1c(cccc1C(=O)O)S2	–	> 100	–	> 100	–	–	–	> 100	–	> 100	–	> 100	–	> 100
COc1ccc(C2SCC(=O)N2NC(=O)c2ccc(NC(C)=O)cc2)cc1 (stereo not given)	–	> 100	–	> 100	–	–	–	> 100	–	> 100	–	> 100	–	> 100
COc1cccc(/C=C/C(=O)c2ccc(Cl)cc2Cl)c1	7.84	47.1	10.3	22.3	8.9	> 50	11	22.4	13.9	36.7	–	–	9.42	17.3
CCN(CC)CCCNC(=O)c1c2c(n3ccccc13)C(=O)c1ncccc1C2=O	0.298	1.76	0.764	2.25	–	–	1.94	4.06	1.5	2.93	1.34	3.61	1.23	2.56
